This is an account of results in patent EP4289427A1, “DIHYDRO[1,8]NAPHTHYRIDIN-7-ONE AND PYRIDO[3,2-B][1,4]OXAZIN-3-ONE FOR USE IN TREATING CANCER, AND METASTASES IN PARTICULAR” (Anagenesis Biotechnologies, priority 2022, dated 2023).

One series concerns HUVECs. Description: Tube formation assay (anti-angiogenic activity). In kind it is cell-based, human. Particulars: incubation 16 to 18 hours; for IC50: Homo sapiens, HUVEC. Put shortly:
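HUVECs plated at 5000 cells/well on reduced growth factor basement membrane matrix, then exposed to compounds for 16 to 18 hours at 37°C. Cells stained with calcein-AM; tube networks imaged by confocal fluorescence microscopy and quantified.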

Series [1] has as its system MDA-MB-231 cells. The series is described as follows: Cytotoxicity assay (CellTiter-Glo 2.0) on MDA-MB-231 cells. It counts as cell-based, Human. Particulars: incubation 3 days; for IC50: Homo sapiens, 72 h. Put shortly:
(§1)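 Compound-treated cells, incubation time varying by line; CellTiter-Glo 2.0 ATP luminescence; relative IC50.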
For orientation: ATP-based viability assays read luminescence as a measure of living cells.

The subject of series [2] is 4T1 cells. Description: Cytotoxicity assay (CellTiter-Glo 2.0) on 4T1 cells. Particulars: incubation 2 days; for IC50: Mus musculus, 48 h. It counts as cell-based, Mouse. Summed up: as §1
A further series has as its system EoL-1 cells. The series is described as follows: Cytotoxicity assay (CellTiter-Glo 2.0) on EoL-1 cells. In kind it is cell-based, Human. Particulars: incubation 1 day; for IC50: Homo sapiens, EOL1, 24 h. Put shortly: as §1
Series [3] has as its system 4T1 cells. The series is described as follows: Epithelial-mesenchymal transition marker expression by qRT-PCR. Particulars: 24 hours, expression normalized against RPL13. In kind it is cell-based, Mouse. Details: key: ↗: increased expression; ↘: decreased expression; =: unchanged expression levels. The text has this: The epithelial-mesenchymal transition (hereafter "EMT") is a process by which epithelial cells lose their cell polarity and cell-cell adhesion while gaining migratory and invasive properties to become mesenchymal stem cells. EMT is commonly measured by quantifying both epithelial and mesenchymal marker's expression by quantitative reverse-transcription polymerase chain reaction (hereafter "qRT-PCR"). EMT inhibition is observed when epithelial markers are stable or increased while mesenchymal markers are decreased.
4T1 cells were treated with compounds to be tested or DMSO for 24 hours. 4T1 cells were then harvested directly in NucleoZol lysis buffer (cat. no. 740404.200 from Macherey-Nagel), according to the manufacturer's instructions. Total RNA was extracted using the NucleoSpin RNA set for NucleoZol (cat. no. 740406.50 from Macherey-Nagel). The quantity and purity of RNA was determined using a Quickdrop (Molecular Devices). RT-PCR was performed on 500 ng total RNA using iScript gDNA clear cDNA synthesis Kit (cat.no. 1725035 from Biorad). The qPCR was run on a QuantStudio 5 real time thermocycler (Applied Biosystems), with PowerUp SYBR Green Master Mix (cat.no. A25742 from Fisher Scientific) and the primers listed in Table 16.
Expression data of EMT markers have been normalized against expression data of the housekeeping gene RPL13.
A general note: Quantitative PCR measures a nucleic acid by following its amplification.

Series [4] deals with 4T1 cells. Description: Colony forming (clonogenic) assay. It counts as cell-based, Mouse. Particulars: 6 days of treatment, Figure 2. How it is done: Cancer stem cells are characterized by their ability to undergo virtually unlimited divisions. Colony forming assay (or clonogenic assay) is an in vitro assay designed to assess capability of single cells to grow into large colonies through clonal expansion.
4T1 cells were seeded at a density of 500 cells per well of six-well plates in 4T1 medium. Compounds to be tested were added 24 hours after seeding. After 6 days of treatment, the cells were fixed in 4% PFA and stained with 1% aqueous solution of crystal violet. Pictures of the entire wells were acquired, and the area of the positives colonies was evaluated by ImageJ software (Wayne Rasband; NIH).

In series [5] the test system is RD cells. The series is described as follows: Differentiation of RD cells into myotubes (alpha-actinin staining). Particulars: 7 days, Figure 3. It counts as cell-based, Human. The procedure: RD cells are cancer cells of muscle origin that arose from myogenic precursors that fail to complete muscle differentiation. One strategy to stop their progression is to differentiate them into myotubes.
To allow differentiation, RD cells were seeded at a density of 3500 cells/well in a 384-well plate coated with collagen type I, in DMEM (4,5g/L glucose) with L-Gln (cat.no. 41965-039 from Gibco) supplemented with 5% of knockout serum replacement (cat.no. 10828-028 from Gibco), 1% PenStrep (Gibco), 1% MEM NEAA (Gibco) and 0.1 mM 2-mercaptoethanol (Gibco) (hereafter "K5 medium"). Compounds to be tested were then added onto the cells and incubated for 7 days at 37°C. On day 7, cells were fixed with 4% paraformaldehyde solution and immunostained for α-actinin (cat.no. EA-53 from Sigma, at 1/30000).

Series [6] concerns RD cells. Description: Cytotoxicity assay (CellTiter-Glo 2.0) on RD cells. In kind it is cell-based, Human. The conditions noted are these: for IC50: Homo sapiens. Put shortly:
as §1

The subject of series [7] is MDA-MB-231 cells. The series is described as follows: Scratch (wound healing) assay, cell migration. In kind it is cell-based, Human. The conditions noted are these: 24 hours, Figure 1. How it is done:
Cell migration is involved in several pathological cancer processes such as tumor invasion, neoangiogenesis and metastasis. Scratch (or wound healing) assay is a method to study two-dimensional cell migration in vitro. It is based on the observation that cells growing in a monolayer migrate to reestablish cell contacts after a mechanical scratch wound.
The MDA-MB-231 cells were seeded into a 24-well plate and grown to confluent density. A scrape was made in each well using a pipette tip. Then, the cells monolayers were incubated for 2 hours with 5 µg/ml mitomycin C to stop cell proliferation. The cells were treated with the compounds to be tested for 24 hours. The cells were stained using CellMask Green actin tracking stain (cat.no. A57246 from Fisher Scientific) at time zero and at endpoint. Pictures were acquired using a fluorescence microscope (IXM from Molecular Device). The scratch area was measured with the ImageJ software. The recovery of the scratch area was calculated as a percentage of the scratch area at time zero.

Some results are limits rather than exact numbers.

As for `CSc1cc(Oc2ccnc3c2OCC(=O)N3)ccc1NC(=O)Nc1cc(C(C)(C)C)nn1-c1ccccc1` [Compound 006, 1-(3-(tert-butyl)-1-phenyl-1H-pyrazol-5-yl)-3-(2-(methylthio)-4-((3-oxo-3,4-dihydro-2H-pyrido[3,2-b][1,4]oxazin-8-yl)oxy)phenyl)urea], the IC50 (as a rule, the concentration at which inhibition is half-maximal) was 100 to 500 nM with HUVECs; 1000 to 5000 nM with MDA-MB-231 cells [1]; 1000 to 5000 nM with 4T1 cells [2]; 10 to 100 nM in the series with EoL-1 cells; 1000 to 5000 nM in the series on RD cells [6] (48 h, 2 day-treatment); 1000 to 5000 nM with RD cells [6] (96 h, 4 day-treatment). In addition, in the series with HUVECs, the Angiogenesis inhibition result was “+++ (angiogenesis inhibition ≥ 80%)”. Moreover, the Cytotoxicity entry in the series on MDA-MB-231 cells [1] is reported as “++ (50% ≤ cytotoxicity < 85%)”; with 4T1 cells [2], “+++ (cytotoxicity ≥ 85%)”; in the series on EoL-1 cells, “+++ (cytotoxicity ≥ 85%)”; in the series with RD cells [6] (2 day-treatment), “++ (50% ≤ cytotoxicity < 85%)”; in the series with RD cells [6] (4 day-treatment), “++ (50% ≤ cytotoxicity < 85%)”. Further, the “Epithelial markers E-cadherin” value in the series with 4T1 cells [3] is recorded as “↗”. Besides, the “Epithelial markers EpCAM” value with 4T1 cells [3] was “↗”. Also, in the series with 4T1 cells [3], the “Mesenchymal markers Fibronectin” value is “↘”. Also, the “Mesenchymal markers Vimentin” value in the series on 4T1 cells [3] is listed as “↘”. In addition, the colony growth result with 4T1 cells [4] is listed as “inhibition of colony growth”. In the series with RD cells [5], the differentiation into myotubes result is listed as “dose-dependent differentiation into myotubes”. Further, in the series with MDA-MB-231 cells [7], the “migration in the scratch assay” value is “inhibition of their migration”.

For the compound `CSc1cc(Oc2ccnc3c2OCC(=O)N3)ccc1NC(=O)Nc1cc(C(C)(C)C)nn1-c1cncc(F)c1` [Compound 018, 1-[5-tert-butyl-2-(5-fluoro-3-pyridyl)pyrazol-3-yl]-3-[2-methylsulfanyl-4-[(3-oxo-4H-pyrido[3,2-b][1,4]oxazin-8-yl)oxy]phenyl]urea], the IC50 in the series with HUVECs was below 100 nM; with MDA-MB-231 cells [1] it was 1000 to 5000 nM; with 4T1 cells [2], below 1000 nM; in the series on EoL-1 cells, 1 to 10 nM; in the series on RD cells [6] (48 h, 2 day-treatment), 1000 to 5000 nM; with RD cells [6] (96 h, 4 day-treatment), 1000 to 5000 nM. The Angiogenesis inhibition result in the series with HUVECs is reported as “+++ (angiogenesis inhibition ≥ 80%)”. The Cytotoxicity result is reported as “++ (50% ≤ cytotoxicity < 85%)” in the series with MDA-MB-231 cells [1]; “+++ (cytotoxicity ≥ 85%)” with 4T1 cells [2]; “+++ (cytotoxicity ≥ 85%)” in the series on EoL-1 cells; “+ (20 % ≤ cytotoxicity < 50%)” in the series on RD cells [6] (2 day-treatment); “++ (50% ≤ cytotoxicity < 85%)” in the series with RD cells [6] (4 day-treatment). Moreover, the “Epithelial markers E-cadherin” value in the series on 4T1 cells [3] is listed as “↗”. The “Epithelial markers EpCAM” value in the series on 4T1 cells [3] is on record as “↗”. Moreover, the “Mesenchymal markers Fibronectin” value with 4T1 cells [3] is “↘”. Moreover, the “Mesenchymal markers Vimentin” value with 4T1 cells [3] was “↘”. The differentiation into myotubes entry in the series with RD cells [5] was “dose-dependent differentiation into myotubes”.

Consider `Cc1ccc(-n2nc(C(C)(C)C)cc2NC(=O)Nc2ccc(Oc3ccnc4c3CCC(=O)N4)cc2C(F)(F)F)cn1` [Compound 017, 1-[5-tert-butyl-2-(6-methyl-3-pyridyl)pyrazol-3-yl]-3-[4-[(7-oxo-6,8-dihydro-5H-1,8-naphthyridin-4-yl)oxy]-2-(trifluoromethyl)phenyl]urea], for which the concentration for half-maximal inhibition (IC50) with HUVECs was below 100 nM; in the series with MDA-MB-231 cells [1], 1000 to 5000 nM; in the series with 4T1 cells [2] it was below 1000 nM; in the series with EoL-1 cells, 1 to 10 nM; in the series on RD cells [6] (48 h, 2 day-treatment), 1000 to 5000 nM; in the series with RD cells [6] (96 h, 4 day-treatment) it was 1000 to 5000 nM. Further, the Angiogenesis inhibition entry in the series on HUVECs was “+++ (angiogenesis inhibition ≥ 80%)”. Also, the Cytotoxicity result is recorded as “++ (50% ≤ cytotoxicity < 85%)” in the series with MDA-MB-231 cells [1]; “+++ (cytotoxicity ≥ 85%)” in the series with 4T1 cells [2]; “++ (50% ≤ cytotoxicity < 85%)” in the series with EoL-1 cells; “++ (50% ≤ cytotoxicity < 85%)” with RD cells [6] (2 day-treatment); “+++ (cytotoxicity ≥ 85%)” with RD cells [6] (4 day-treatment). Further, the “Epithelial markers E-cadherin” value with 4T1 cells [3] was “↗”. The “Epithelial markers EpCAM” value with 4T1 cells [3] is given as “↗”. Further, the “Mesenchymal markers Fibronectin” value with 4T1 cells [3] is “↘”. Further, in the series on 4T1 cells [3], the “Mesenchymal markers Vimentin” value was “↘”. Besides, the colony growth result in the series on 4T1 cells [4] is on record as “inhibition of colony growth”. Besides, in the series on MDA-MB-231 cells [7], the “migration in the scratch assay” value is reported as “inhibition of their migration”.

On to `CC(C)(C)c1cc(NC(=O)Nc2ccc(Oc3ccnc4c3CCC(=O)N4)cc2C(F)(F)F)n(-c2cncc(F)c2)n1` [Compound 016, 1-[5-tert-butyl-2-(5-fluoro-3-pyridyl)pyrazol-3-yl]-3-[4-[(7-oxo-6,8-dihydro-5H-1,8-naphthyridin-4-yl)oxy]-2-(trifluoromethyl)phenyl]urea], for which the IC50 in the series on HUVECs was below 100 nM; with MDA-MB-231 cells [1], 1000 to 5000 nM; in the series with 4T1 cells [2] it was below 1000 nM; with EoL-1 cells it was 10 to 100 nM; in the series with RD cells [6] (48 h, 2 day-treatment), 1000 to 5000 nM; in the series with RD cells [6] (96 h, 4 day-treatment) it was 5000 to 10000 nM. Besides, in the series on HUVECs, the Angiogenesis inhibition entry was “+++ (angiogenesis inhibition ≥ 80%)”. Also, the Cytotoxicity entry in the series on MDA-MB-231 cells [1] is “++ (50% ≤ cytotoxicity < 85%)”; with 4T1 cells [2], “+++ (cytotoxicity ≥ 85%)”; in the series on EoL-1 cells, “+++ (cytotoxicity ≥ 85%)”; with RD cells [6] (2 day-treatment), “++ (50% ≤ cytotoxicity < 85%)”; in the series with RD cells [6] (4 day-treatment), “++ (50% ≤ cytotoxicity < 85%)”. Further, in the series on 4T1 cells [3], the “Epithelial markers E-cadherin” value is on record as “↗”. In addition, in the series on 4T1 cells [3], the “Epithelial markers EpCAM” value is listed as “↗”. Further, the “Mesenchymal markers Fibronectin” value in the series with 4T1 cells [3] is recorded as “↘”. In addition, the “Mesenchymal markers Vimentin” value in the series on 4T1 cells [3] is listed as “↘”. In the series on 4T1 cells [4], the colony growth entry is listed as “inhibition of colony growth”. In the series with MDA-MB-231 cells [7], the “migration in the scratch assay” value is on record as “inhibition of their migration”.
